Measurements from patent publication US4420481A, “Use of piperazine compounds as immunopotentiating agents” (Mitsuitoatsu Chemicals Inc., priority 1980, dated 1983).

How the values were obtained:
Sarcoma 180 [1] = assay: Test 5: Test of Carcinostatic Effect to Sarcoma 180 by Subcutaneous Administration; assay type: in vivo, ICR female mice; conditions: 20 mg/Kg subcutaneous
Procedure: To the control group, a physiological saline solution was similarly administered. […] The diameter D (mm) of the tumor was measured, and the average value and the number N of the living mice were determined to obtain results shown in Table 4.

EL-4 leukemic cells = assay: Test 3: In-Vitro Test of Inhibition of Growth of Cancer Cell by Macrophage; assay type: cell-based; conditions: 8 mg/Kg intraperitoneal to mice, macrophages collected after 4 days, with EL-4 cells; control 80.2
Procedure: The results of the test of the action of the effective ingredient of the present invention on the macrophage will now be described with reference to the following Test 3. More specifically, the separated macrophage and EL-4 leukemic cell were mixed and cultured, and ^3 H-thymidine was added to a culture medium and the quantity of ^3 H-thymidine incorporated into the EL-4 cell was determined to examine the activity of the macrophage. When the macrophage is activated by administration of the effective ingredient of the present invention, inhibition of the growth of EL-4 cell, that is, phagocytosis of the cancer cell by the macrophage, is observed. Accordingly, if the take-in amount of ^3 H-thymidine is measured and this amount is reduced, it is confirmed that the macrophage has been activated. […] The dose was 8 mg per Kg of the body weight. To the control group, a physiological saline solution was similarly administered. After passage of 4 days, exuded abdominal cells were collected and deposited on a plastic Petri dish to collect microphages. Then, 1×10^6 of so obtained macrophages and 1×10^5 of EL-4 leukemic cells of C57 BL/6J mouse were mixed with cultured in an RPM1 1640 culture medium to which 10% of bovine embryo serum was added (at 37° C. in the presence of 5% of CO2) for 24 hours. Then, 0.1μ Ci of ^3 H-thymidine was added and culturing was further conducted for 16 hours. Cells were collected on a filter paper from the culture medium and the amount of ^3 H-thymidine taken in was determined by a liquid scintillation counter. […] For comparison, the test was similarly carried out by using Levamisol hydrochloride. Results

adjuvant arthritis = assay: Test 2: Adjuvant Arthritis Test; assay type: in vivo, SD male rats; conditions: rat, 5 mg/Kg subcutaneous, 9 times, left hind leg, * P<0.05, ** P<0.01
Sarcoma 180 [2] = assay: Test 4: Test of Antitumor Effect to Sarcoma 180 by Oral Administration; assay type: in vivo, ICR female mice; conditions: for N: number of living mice: 100 mg/Kg oral; for D: average diameter of tumor: 100 mg/Kg oral once a day, 10 days
Procedure: To the control group, a physiological saline solution was similarly administered. The dose of the compound was 100 mg per Kg of the body weight. The diameter D (mm) of the tumor was measured, and the average value and the number N of the living mice were determined to obtain results shown in Table 4.

delayed hypersensitivity = assay: Test 1: Test of Reinforcement of Delayed Hypersensitivity; assay type: in vivo, ICR male mice; conditions: mouse, 50 mg/Kg oral, 24 hours after challenge; * P<0.05, ** P<0.01; control 29.6 ± 1.9
From the text: Various test systems using animals have been proposed for determining the immunopotensiative action. Results of the test of reinforcement of the delayed hypersensitivity, which is a typical test among these tests, will now be described.
This system was used for the test of reinforcement of the delayed hypersensitivity.
One groups of eight ICR male mice, each having a body weight of about 30 g, were used for the test.
Sensitization was effected by coating a 7% solution of picryl chloride in a 4/1 mixture of olive oil and acetone on the shaved abdomen of the mouse.
Simultaneously with sensitization, a solution or suspension of the compound of the present invention in a 0.2% solution of carboxymethyl cellulose in a physiological saline solution was orally administered to the mouse at a dose of 50 mg per Kg of the body weight. To the control group, a 0.2% carboxymethyl cellulose solution in a physiological saline solution was similarly administered.
The delayed hypersensitivity was challenged 7 days after sensitization by gripping the ear of the mouse by a forceps wrapped with a felt impregnated with a 1% solution of picryl chloride in olive oil and coating the ear with the solution. The thickness of the ear was measured before challenging and 24 hours after challenging and the ratio of increase of the thickness (average value of both the ears in eight mice±standard deviation) was obtained as shown in Table 1.
For comparison, the test was similarly carried out by using Levamisol hydrochloride, and the obtained results are shown in Table 1. F.t tests were carried out. The group in which the test result was significant at a level of P<0.05 was marked by *, and the group in which the test result was significant at a level of P<0.01 ws marked by **.

Structure (SMILES): CN1CCN(C(=O)N2CCCC2)CC1 [drawing 19]
- N: number of living mice (Sarcoma 180 [1]; 0 weeks, control 6): 6
- N: number of living mice (Sarcoma 180 [1]; 2 weeks, control 6): 6
- D: average diameter of tumor (Sarcoma 180 [1]; 2 weeks, control 10.8): 2.2 mm
- N: number of living mice (Sarcoma 180 [1]; 4 weeks, control 6): 6
- D: average diameter of tumor (Sarcoma 180 [1]; 4 weeks, control 16.6): 3.6 mm
- N: number of living mice (Sarcoma 180 [1]; 6 weeks, control 6): 6
- D: average diameter of tumor (Sarcoma 180 [1]; 6 weeks, control 20.3): 6.1 mm
- N: number of living mice (Sarcoma 180 [1]; 8 weeks, control 4): 6
- D: average diameter of tumor (Sarcoma 180 [1]; 8 weeks, control 31.2): 1.2 mm
- N: number of living mice (Sarcoma 180 [1]; 10 weeks, control 1): 5
- D: average diameter of tumor (Sarcoma 180 [1]; 10 weeks, control 40.5): 0 mm

Structure (SMILES): CN1CCN(C(=O)N2CCCC2)CC1 [drawing 13]
- Take-In Ratio of 3H-thymidine (average value) (EL-4 leukemic cells): 25.7%

Structure (SMILES): O=C(N1CCCCC1)N1CCN(c2ccccc2)CC1 [drawing 12]
- Swelling Ratio (average value ± standard variation) (adjuvant arthritis; 15 days, control 84.4 ± 9.0): 39.5 ± 11.7%
- Swelling Ratio (average value ± standard variation) (adjuvant arthritis; 18 days, control 103.2 ± 9.7): 56.1 ± 10.8%
- Swelling Ratio (average value ± standard variation) (adjuvant arthritis; 21 days, control 107.5 ± 13.3): 74.4 ± 13.9%

Structure (SMILES): O=C(N1CCCCC1)N1CCN(c2ccccc2)CC1 [drawing 18]
- N: number of living mice (Sarcoma 180 [2]; 0 weeks, control 6): 6
- D: average diameter of tumor (Sarcoma 180 [2]; 2 weeks, control 10.6): 6.2 mm
- N: number of living mice (Sarcoma 180 [2]; 2 weeks, control 6): 6
- D: average diameter of tumor (Sarcoma 180 [2]; 4 weeks, control 15.2): 3.8 mm
- N: number of living mice (Sarcoma 180 [2]; 4 weeks, control 6): 6
- D: average diameter of tumor (Sarcoma 180 [2]; 6 weeks, control 22.4): 4.4 mm
- N: number of living mice (Sarcoma 180 [2]; 6 weeks, control 6): 6
- D: average diameter of tumor (Sarcoma 180 [2]; 8 weeks, control 31.5): 5.3 mm
- N: number of living mice (Sarcoma 180 [2]; 8 weeks, control 5): 6
- D: average diameter of tumor (Sarcoma 180 [2]; 10 weeks, control 37.6): 0 mm
- N: number of living mice (Sarcoma 180 [2]; 10 weeks, control 1): 6

Structure (SMILES): CN1CCN(C(=O)N2CCCCC2)CC1 [drawing 17]
- N: number of living mice (Sarcoma 180 [2]; 0 weeks, control 6): 6
- D: average diameter of tumor (Sarcoma 180 [2]; 2 weeks, control 10.6): 6.0 mm
- N: number of living mice (Sarcoma 180 [2]; 2 weeks, control 6): 6
- D: average diameter of tumor (Sarcoma 180 [2]; 4 weeks, control 15.2): 4.7 mm
- N: number of living mice (Sarcoma 180 [2]; 4 weeks, control 6): 6
- D: average diameter of tumor (Sarcoma 180 [2]; 6 weeks, control 22.4): 4.8 mm
- N: number of living mice (Sarcoma 180 [2]; 6 weeks, control 6): 6
- D: average diameter of tumor (Sarcoma 180 [2]; 8 weeks, control 31.5): 3.3 mm
- N: number of living mice (Sarcoma 180 [2]; 8 weeks, control 5): 6
- D: average diameter of tumor (Sarcoma 180 [2]; 10 weeks, control 37.6): 0 mm
- N: number of living mice (Sarcoma 180 [2]; 10 weeks, control 1): 6

Structure (SMILES): O=C(N1CCCCC1)N1CCN(c2ccccc2)CC1 [drawing 9]
- Ratio of Increase of Ear Thickness (average value ± Standard Variation) (delayed hypersensitivity): 45.0 ± 4.6%

Structure (SMILES): CN1CCN(C(=O)N2CCCC2)CC1 [drawing 16]
- N: number of living mice (Sarcoma 180 [2]; 0 weeks, control 6): 6
- D: average diameter of tumor (Sarcoma 180 [2]; 2 weeks, control 10.6): 7.7 mm
- N: number of living mice (Sarcoma 180 [2]; 2 weeks, control 6): 6
- D: average diameter of tumor (Sarcoma 180 [2]; 4 weeks, control 15.2): 6.3 mm
- N: number of living mice (Sarcoma 180 [2]; 4 weeks, control 6): 6
- D: average diameter of tumor (Sarcoma 180 [2]; 6 weeks, control 22.4): 5.5 mm
- N: number of living mice (Sarcoma 180 [2]; 6 weeks, control 6): 6
- D: average diameter of tumor (Sarcoma 180 [2]; 8 weeks, control 31.5): 4.7 mm
- N: number of living mice (Sarcoma 180 [2]; 8 weeks, control 5): 6
- D: average diameter of tumor (Sarcoma 180 [2]; 10 weeks, control 37.6): 0 mm
- N: number of living mice (Sarcoma 180 [2]; 10 weeks, control 1): 6

Structure (SMILES): CN1CCN(C(=O)N2CCCC2)CC1 [drawing 10]
- Swelling Ratio (average value ± standard variation) (adjuvant arthritis; 15 days, control 84.4 ± 9.0): 54.6 ± 11.3%
- Swelling Ratio (average value ± standard variation) (adjuvant arthritis; 18 days, control 103.2 ± 9.7): 61.7 ± 13.0%
- Swelling Ratio (average value ± standard variation) (adjuvant arthritis; 21 days, control 107.5 ± 13.3): 73.3 ± 14.6%

Structure (SMILES): CN1CCN(C(=O)N2CCCCC2)CC1 [drawing 20]
- N: number of living mice (Sarcoma 180 [1]; 0 weeks, control 6): 6
- N: number of living mice (Sarcoma 180 [1]; 2 weeks, control 6): 6
- D: average diameter of tumor (Sarcoma 180 [1]; 2 weeks, control 10.8): 1.6 mm
- N: number of living mice (Sarcoma 180 [1]; 4 weeks, control 6): 6
- D: average diameter of tumor (Sarcoma 180 [1]; 4 weeks, control 16.6): 3.7 mm
- N: number of living mice (Sarcoma 180 [1]; 6 weeks, control 6): 6
- D: average diameter of tumor (Sarcoma 180 [1]; 6 weeks, control 20.3): 5.7 mm
- N: number of living mice (Sarcoma 180 [1]; 8 weeks, control 4): 6
- D: average diameter of tumor (Sarcoma 180 [1]; 8 weeks, control 31.2): 0.8 mm
- N: number of living mice (Sarcoma 180 [1]; 10 weeks, control 1): 6
- D: average diameter of tumor (Sarcoma 180 [1]; 10 weeks, control 40.5): 0 mm

Structure (SMILES): CN1CCN(C(=O)N2CCCC2)CC1 [drawing 7]
- Ratio of Increase of Ear Thickness (average value ± Standard Variation) (delayed hypersensitivity): 36.7 ± 2.5%

Structure (SMILES): CN1CCN(C(=O)N2CCCCC2)CC1 [drawing 14]
- Take-In Ratio of 3H-thymidine (average value) (EL-4 leukemic cells): 22.6%

Structure (SMILES): O=C(N1CCCCC1)N1CCN(c2ccccc2)CC1 [drawing 21]
- N: number of living mice (Sarcoma 180 [1]; 0 weeks, control 6): 6
- N: number of living mice (Sarcoma 180 [1]; 2 weeks, control 6): 6
- D: average diameter of tumor (Sarcoma 180 [1]; 2 weeks, control 10.8): 2.4 mm
- N: number of living mice (Sarcoma 180 [1]; 4 weeks, control 6): 6
- D: average diameter of tumor (Sarcoma 180 [1]; 4 weeks, control 16.6): 3.9 mm
- N: number of living mice (Sarcoma 180 [1]; 6 weeks, control 6): 6
- D: average diameter of tumor (Sarcoma 180 [1]; 6 weeks, control 20.3): 5.2 mm
- N: number of living mice (Sarcoma 180 [1]; 8 weeks, control 4): 6
- D: average diameter of tumor (Sarcoma 180 [1]; 8 weeks, control 31.2): 0.2 mm
- N: number of living mice (Sarcoma 180 [1]; 10 weeks, control 1): 6
- D: average diameter of tumor (Sarcoma 180 [1]; 10 weeks, control 40.5): 0 mm

Structure (SMILES): O=C(N1CCCCC1)N1CCN(c2ccccc2)CC1 [drawing 15]
- Take-In Ratio of 3H-thymidine (average value) (EL-4 leukemic cells): 21.9%

Structure (SMILES): CN1CCN(C(=O)N2CCCCC2)CC1 [drawing 11]
- Swelling Ratio (average value ± standard variation) (adjuvant arthritis; 15 days, control 84.4 ± 9.0): 49.4 ± 10.3%
- Swelling Ratio (average value ± standard variation) (adjuvant arthritis; 18 days, control 103.2 ± 9.7): 62.0 ± 12.5%
- Swelling Ratio (average value ± standard variation) (adjuvant arthritis; 21 days, control 107.5 ± 13.3): 68.1 ± 14.0%

Structure (SMILES): CN1CCN(C(=O)N2CCCCC2)CC1 [drawing 8]
- Ratio of Increase of Ear Thickness (average value ± Standard Variation) (delayed hypersensitivity): 43.5 ± 2.8%
